Reference: ChEMBL document CHEMBL3885881, “DrugMatrix”

Species: Rattus norvegicus
Format: toxicity, organism-based, Sprague-Dawley
Settings: in vivo, po, 24 h, route oral GAVAGE, time 1 day, vehicle 100 % SALINE; for ABSOLUTE BASOPHIL / ABSOLUTE EOSINOPHIL / ABSOLUTE LYMPHOCYTE / ABSOLUTE MONOCYTE / BASOPHIL / EOSINOPHIL / ERYTHROCYTE COUNT / HEMATOCRIT / HEMOGLOBIN / LEUKOCYTE COUNT / LYMPHOCYTE / MEAN CORPUSCULAR HEMOGLOBIN / MEAN CORPUSCULAR HEMOGLOBIN CONCENTRATION / MEAN CORPUSCULAR VOLUME / MONOCYTE / NEUTROPHIL / PLATELET COUNT: tissue Blood
[1] = 0 mg/kg, vehicle control, dose level Control
[2] = 0 mg/kg, vehicle control, tissue Plasma, dose level Control
[3] = 2 mg/kg, tissue Plasma, dose level High

Description: DrugMatrix - Regimen: Single

## COc1cccc2c1C(=O)c1c(O)c3c(c(O)c1C2=O)C[C@@](O)(C(C)=O)C[C@@H]3O[C@H]1C[C@H](N)[C@H](O)[C@H](C)O1 [DAUNORUBICIN]
[1]
  ABSOLUTE BASOPHIL: 73.3 cells/µL
  ABSOLUTE EOSINOPHIL: 86.7 cells/µL
  ABSOLUTE LYMPHOCYTE: 8400 cells/µL
  ABSOLUTE MONOCYTE: 350 cells/µL
  BASOPHIL: 0.63%
  EOSINOPHIL: 0.73%
  ERYTHROCYTE COUNT: 6.55 x10E6/uL
  HEMATOCRIT: 42.83%
  HEMOGLOBIN: 13.6 G/DL
  LEUKOCYTE COUNT: 11.33 x10E3/uL
  LYMPHOCYTE: 74.77%
  MEAN CORPUSCULAR HEMOGLOBIN: 20.77 pg
  MEAN CORPUSCULAR HEMOGLOBIN CONCENTRATION: 31.7 G/DL
  MEAN CORPUSCULAR VOLUME: 65.53 fL
  MONOCYTE: 3%
  NEUTROPHIL: 20.2%
  PLATELET COUNT: 1394.33 x10E3/uL
[2]
  ALANINE AMINOTRANSFERASE: 34 u/L
  ALBUMIN: 4.03 G/DL
  ALKALINE PHOSPHATASE: 345.33 u/L
  ASPARTATE AMINOTRANSFERASE: 69.67 u/L
  BLOOD UREA NITROGEN: 14.33 mg/dL
  CARBON DIOXIDE: 46 mmol/L
  CHLORIDE: 102.67 MEQ/L
  CHOLESTEROL: 85 mg/dL
  CREATINE PHOSPHOKINASE: 292 u/L
  CREATININE: 0.2 mg/dL
  GLUCOSE: 168 mg/dL
  LIPASE: 13 u/L
  PHOSPHORUS: 11.2 mg/dL
  POTASSIUM: 7.07 MEQ/L
  SODIUM: 144.67 MEQ/L
  TOTAL BILIRUBIN: 0.27 mg/dL
  TOTAL PROTEIN: 6.57 G/DL
  URIC ACID: 0.73 mg/dL
2 mg/kg, dose level High
  ABSOLUTE BASOPHIL: 30 cells/µL
  ABSOLUTE EOSINOPHIL: 60 cells/µL
  ABSOLUTE LYMPHOCYTE: 7160 cells/µL
  ABSOLUTE MONOCYTE: 260 cells/µL
  BASOPHIL: 0.33%
  EOSINOPHIL: 0.67%
  ERYTHROCYTE COUNT: 6.43 x10E6/uL
  HEMATOCRIT: 42.57%
  HEMOGLOBIN: 13.5 G/DL
  LEUKOCYTE COUNT: 9.23 x10E3/uL
  LYMPHOCYTE: 77.03%
  MEAN CORPUSCULAR HEMOGLOBIN: 21.03 pg
  MEAN CORPUSCULAR HEMOGLOBIN CONCENTRATION: 31.73 G/DL
  MEAN CORPUSCULAR VOLUME: 66.3 fL
  MONOCYTE: 2.83%
  NEUTROPHIL: 18.5%
  PLATELET COUNT: 1328.67 x10E3/uL
[3]
  ALANINE AMINOTRANSFERASE: 37.33 u/L
  ALBUMIN: 3.93 G/DL
  ALKALINE PHOSPHATASE: 397.67 u/L
  ASPARTATE AMINOTRANSFERASE: 67.67 u/L
  BLOOD UREA NITROGEN: 13.67 mg/dL
  CARBON DIOXIDE: 39.33 mmol/L
  CHLORIDE: 104.67 MEQ/L
  CHOLESTEROL: 84 mg/dL
  CREATINE PHOSPHOKINASE: 230.33 u/L
  CREATININE: 0.27 mg/dL
  GLUCOSE: 179 mg/dL
  LACTATE DEHYDROGENASE: 60.33 u/L
  LIPASE: 9.67 u/L
  PHOSPHORUS: 11.57 mg/dL
  POTASSIUM: 6.13 MEQ/L
  SODIUM: 146 MEQ/L
  TOTAL BILIRUBIN: 0.2 mg/dL
  TOTAL PROTEIN: 6.37 G/DL
  URIC ACID: 1 mg/dL
